Drawing on US10336735B2, “Small molecule inhibitors of fibrosis” (THE CALIFORNIA INSTITUTE FOR BIOMEDICAL RESEARCH, priority 2014, dated 2019), this text covers EC50 for 34 compounds.

For this assay, the system named is primary human lung fibroblasts and primary rodent HSCs. In words: High content imaging assay (α-SMA staining, cell morphology) of fibroblast to myofibroblast transdifferentiation, confirmed by Western blot and RT-PCR. The following applies: Homo sapiens, Fibroblast; imaging and western based activity. The method in brief: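 Primary human lung fibroblasts and primary rodent HSCs were serum-starved and then TGF-β-treated to drive transdifferentiation in 384-well format, with SB-431542 as positive control. Readouts were α-SMA immunofluorescence and cell morphology by high-content imaging, confirmed by Western blot and RT-PCR in 4-day, 4-point dose-response assays; EC50 values are graded.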
The term EC50 denotes the concentration giving half of the maximal effect. In the case of `CCC(C)n1ncn(-c2ccc(N3CCN(c4ccc(OCCCO[C@@H](Cn5nccn5)c5ccccc5)cc4)CC3)cc2)c1=O` (stereo partly shown) [Compound 142], the EC50 was > 30 µM.

In the case of `CCC(C)n1ncn(-c2ccc(N3CCN(c4ccc(OC[C@@H]5CO[C@@](Cc6ccnnc6)(c6cccc(C)c6)O5)cc4)CC3)cc2)c1=O` (stereo partly shown) [Compound 137], the EC50 was < 0.5 µM.

Consider `CCC(C)n1ncn(-c2ccc(N3CCN(c4ccc(OC[C@@H]5CO[C@](Cc6ccnnc6)(c6ccccc6OC)O5)cc4)CC3)cc2)c1=O` (stereo partly shown) [Compound 107], for which the EC50 lay in the range of 0.5 to 5 µM.

Consider `CC(CCN)n1ncn(-c2ccc(N3CCN(c4ccc(OC[C@@H]5CO[C@@](Cn6nccn6)(c6ccccc6)O5)cc4)CC3)cc2)c1=O` (stereo partly shown) [Compound 17], for which the EC50 was in the range of 5 to 30 µM.

As for `CCC(C)n1ncn(-c2ccc(N3CCN(c4ccc(OC[C@@H]5CO[C@](Cc6ccnnc6)(c6ccc(S(N)(=O)=O)cc6)O5)cc4)CC3)cc2)c1=O` (stereo partly shown) [Compound 120], the EC50 was > 30 µM.

Consider `CCC(C)n1ncn(-c2ccc(N3CCN(c4ccc(OC[C@@H]5CO[C@@](Cn6nccn6)(c6cc(Cl)ccc6C)O5)cc4)CC3)cc2)c1=O` (stereo partly shown) [Compound 34], for which the EC50 lay within 0.5 to 5 µM.

As for `CCC(C)n1ncn(-c2ccc(N3CCN(c4ccc(OC[C@H]5CO[C@](Cn6nccn6)(c6ccccc6)C5)cc4F)CC3)cc2)c1=O` (stereo partly shown) [Compound 148], the EC50 was > 30 µM.

As to `CCC(C)n1ncn(-c2ccc(N3CCN(c4ccc(OC[C@@H]5CO[C@@](Cn6cccn6)(c6ccc(C(F)(F)F)cc6)O5)cc4)CC3)cc2)c1=O` (stereo partly shown) [Compound 93], the 50% effective concentration (EC50) was < 0.5 µM.

`CCC(C)n1ncn(-c2ccc(N3CCN(c4ccc(OC[C@@H]5CO[C@@](CC)(c6ccc(Cl)cc6Cl)O5)cc4)CC3)cc2)c1=O` (stereo partly shown) [Compound 40] gave an EC50 of 0.5 to 5 µM.

The compound `CCC(C)n1ncn(-c2ccc(N3CCN(c4ccc(OC[C@H]5CO[C@@](Cn6nccn6)(c6ccccc6)O5)cc4)CC3)cc2)c1=O` (stereo partly shown) [Compound 188] yielded a 50% effective concentration (EC50) of 5 to 30 µM.

Compound `CCC(C)n1ncn(-c2ccc(N3CCN(c4ccc(OC[C@@H]5CO[C@](Cc6ccnnc6)(c6cccc(OC)c6)O5)cc4)CC3)cc2)c1=O` (stereo partly shown) [Compound 108] came in with an EC50 of 0.5 to 5 µM.

The compound `CCC(C)n1ncn(-c2ccc(N3CCN(c4ccc(OC[C@@H]5CO[C@](Cc6ccnnc6)(c6ccccc6C(F)(F)F)O5)cc4)CC3)cc2)c1=O` (stereo partly shown) [Compound 112] came in with an EC50 of 0.5 to 5 µM.

As to `CCC(C)n1ncn(-c2ccc(N3CCN(c4ccc(OC[C@@H]5CO[C@@](Cc6ccnnc6)(c6ccc(C#N)cc6)O5)cc4)CC3)cc2)c1=O` (stereo partly shown) [Compound 131], the EC50 is > 30 µM.

Consider `CCC(C)n1ncn(-c2ccc(N3CCN(c4ccc(OC[C@@H]5CO[C@@](Cn6nccn6)(c6cccc(Cl)c6Cl)O5)cc4)CC3)cc2)c1=O` (stereo partly shown) [Compound 29], for which the EC50 is < 0.5 µM.

Take `CCC(C)n1ncn(-c2ccc(N3CCN(c4ccc(OC[C@@H]5CO[C@@](Cn6nccn6)(c6ccc(Cl)cc6Cl)O5)cc4C#N)CC3)cc2)c1=O` (stereo partly shown) [Compound 56]: the 50% effective concentration (EC50) was in the range of 0.5 to 5 µM.

Regarding `CCC(C)n1ncn(-c2ccc(N3CCN(c4ccc(OC[C@@H]5CO[C@@](Cn6nc7ccccc7n6)(c6ccc(C#N)cc6C)O5)cc4)CC3)cc2)c1=O` (stereo partly shown) [Compound 50], the 50% effective concentration (EC50) lay in the range of 0.5 to 5 µM.

Compound `CCC(C)n1ncn(-c2ccc(N3CCN(c4ccc(OC[C@@H]5CO[C@@](Cc6ccnnc6)(c6cccc(OC)c6)O5)cc4)CC3)cc2)c1=O` (stereo partly shown) [Compound 128] yielded an EC50 of 0.5 to 5 µM.

`CCC(C)n1ncn(-c2ccc(N3CCN(c4ccc(OC[C@@H]5CO[C@@](Cn6cccn6)(c6ccccc6C(F)(F)F)O5)cc4)CC3)cc2)c1=O` (stereo partly shown) [Compound 91]: the EC50 was < 0.5 µM.

On to `CC[C@H](C)n1ncn(-c2ccc(N3CCN(c4ccc(OC[C@@H]5CO[C@@](Cn6cccn6)(c6ccccc6)O5)cc4)CC3)cc2)c1=O` [Compound 168], for which the EC50 is < 0.5 µM.

As to `CCC(C)n1ncn(-c2ccc(N3CCN(c4ccc(OC[C@@H]5CO[C@@](Cn6cccn6)(c6ccc(OC)cc6)O5)cc4)CC3)cc2)c1=O` (stereo partly shown) [Compound 87], the EC50 is < 0.5 µM.

Take `CCC(C)n1ncn(-c2ccc(N3CCN(c4ccc(OC[C@@H]5CO[C@@](Cn6nccn6)(c6ccc(Cl)cc6Br)O5)cc4)CC3)cc2)c1=O` (stereo partly shown) [Compound 31]: the concentration for a half-maximal effect (EC50) was < 0.5 µM.

As to `CC[C@@H](C)n1ncn(-c2ccc(N3CCN(c4ccc(OC[C@@H]5CO[C@](Cn6nccn6)(c6ccccc6)O5)cc4)CC3)cc2)c1=O` [Compound 189], the EC50 was 5 to 30 µM.

Turning to `CCC(C)n1ncn(-c2ccc(N3CCN(c4ccc(OC[C@@H]5CO[C@@](Cn6nccn6)(c6ccccc6)O5)c(C(F)(F)F)c4)CC3)cc2)c1=O` (stereo partly shown) [Compound 59], the concentration giving a half-maximal response (EC50) lay within 5 to 30 µM.

In turn, `CC(=O)C(C)n1cnn(-c2ccc(N3CCN(c4ccc(OC[C@@H]5CO[C@@](Cn6nccn6)(c6ccc(Cl)cc6Cl)O5)cc4)CC3)cc2)c1=O` (stereo partly shown) [Compound 10] displayed an EC50 of 0.5 to 5 µM.

For `O=c1n(-c2ccc(N3CCN(c4ccc(OC[C@H]5CO[C@](Cn6nccn6)(c6ccc(Cl)cc6Cl)O5)cc4F)CC3)cc2)cnn1CC1CCCC1` [Compound 163], the EC50 is < 0.5 µM.

As to `CCC(C)n1ncn(-c2ccc(N3CCN(c4ccccc4OC[C@@H]4CO[C@@](Cn5nccn5)(c5ccc(Cl)cc5Cl)O4)CC3)cc2)c1=O` (stereo partly shown) [Compound 79], the concentration giving a half-maximal response (EC50) was > 30 µM.

In the case of `CC[C@@H](C)n1ncn(-c2ccc(N3CCN(c4ccc(OC[C@H]5CO[C@@](Cn6nccn6)(c6ccccc6)O5)cc4)CC3)cc2)c1=O` [Compound 184], the half-maximal effective concentration (EC50) is < 0.5 µM.

For `CCC(C)n1ncn(-c2ccc(N3CCN(c4ccc(OC[C@@H]5CO[C@](Cc6ccnnc6)(c6ccc(Cl)c(Cl)c6)O5)cc4)CC3)cc2)c1=O` (stereo partly shown) [Compound 106], the EC50 is < 0.5 µM.

In turn, `CCC(C)n1ncn(-c2ccc(N3CCCN(c4ccc(OC[C@@H]5CO[C@@](Cn6nccn6)(c6ccc(Cl)cc6Cl)O5)cc4)CC3)cc2)c1=O` (stereo partly shown) [Compound 74] gave an EC50 of 0.5 to 5 µM.

Turning to `CCC(C)n1ncn(-c2ccc(N3CCN(c4ccc(OC[C@@H]5CO[C@@](Cc6ccnnc6)(c6ccccc6Cl)O5)cc4)CC3)cc2)c1=O` (stereo partly shown) [Compound 125], the concentration for a half-maximal effect (EC50) was < 0.5 µM.

For the compound `CCC(C)n1ncn(-c2ccc(N3CCN(c4ccc(OC[C@@H]5CO[C@@](Cn6cccn6)(c6cc(Cl)cc(Cl)c6)O5)cc4)CC3)cc2)c1=O` (stereo partly shown) [Compound 80], the concentration giving a half-maximal response (EC50) fell in the range of 0.5 to 5 µM.

`C#Cc1ccc([C@]2(Cn3cncn3)OC[C@@H](COc3ccc(N4CCN(c5ccc(-n6cnn(CCC7(C)N=N7)c6=O)cc5)CC4)cc3)O2)cc1` [Compound 192]: the EC50 is 0.5 to 5 µM.

In the case of `CCC(C)n1ncn(-c2ccc(N3CCN(c4ccc(OC[C@@H]5CO[C@@](Cn6cccn6)(c6ccc(OC(F)(F)F)cc6)O5)cc4)CC3)cc2)c1=O` (stereo partly shown) [Compound 94], the 50% effective concentration (EC50) is < 0.5 µM.

Consider `CC(=O)N1CCN(c2ccc(OC[C@@H]3CO[C@@](Cn4nccn4)(c4ccc(Cl)cc4Cl)O3)cc2)CC1` [Compound 4], for which the EC50 was > 30 µM.
